In publication PMC11887451, “Leveraging Immunogenic Cell Death to Enhance the Immune Response against Malignant Pleural Mesothelioma Tumors” (Journal of the American Chemical Society, 2025):

How the values were obtained:
[1] = test system: human malignant mesothelioma cell line LO68; test: MTT cytotoxicity assay, 72 h, LO68; assay type: cell-based; settings: exposure time 72 h
Description: (§1) Human malignant mesothelioma cancer cell lines JU77 and LO68 were obtained from Cell Bank Australia (Children's Medical Research Institute, Westmead, Australia). Mouse malignant mesothelioma cancer cell line AB12, human nonmalignant mesothelioma cancer cell line Met5A (mesothelial cells), mouse macrophage cell line J774 and human monocytic cell line THP-1 were obtained from American Type Culture Collection (ATCC) (Rockville, MD, USA). Human malignant mesothelioma cell lines VMC23 (epithelial), Meso82 (sarcomatous), Meso92 (biphasic), were kindly provided by Prof. Walter Berger (Medical University of Vienna). All cells except for J774 were cultured in RPMI and J774 cells were cultured in DMEM. Both types of media were supplemented with 10% FBS and 1% penicillin-streptomycin (10,000 U/mL). Cells were grown in tissue culture flasks (75 cm2 and 25 cm2, SPL Life Sciences Co., Ltd., Korea). All cell lines were grown at 37 °C in a humidified atmosphere of 95% air and 5% CO 2 and passaged when they reached 80–90% confluency. All Au stock solutions were prepared in 1% DMSO in the respected medium, ensuring that cell viability was not inhibited.
(§2) The cytotoxicity of compounds was determined using an MTT colorimetric test. The cells were harvested from culture flasks by trypsinization and seeded into Cellstar 96 -well microculture plates (Greiner Bio -One) at the seeding density of 6000 cells per well (6 × 10^4 cells/mL). After
(§3) the cells were allowed to resume exponential growth for 16 h, they were exposed to drugs at
(§4) different concentrations in media for 72 h. The drugs were diluted in a complete medium at the desired concentration added to each well (100 μL) and serially diluted in other wells. After exposure for 72 h, the media was replaced with MTT in media (5 mg/mL, 100 μL/well) and

[2] = test system: human malignant mesothelioma cell line JU77; test: MTT cytotoxicity assay, 72 h, JU77; assay type: cell-based; settings: exposure time 72 h
Description: as §1, §2, §3, §4

[3] = test system: patient-derived Meso84 cell line (sarcomatoid MPM); test: MTT cytotoxicity assay, 72 h, Meso84; assay type: cell-based, human; settings: exposure time 72 h
Description: as §1, §2, §3, §4

[4] = test system: human nonmalignant mesothelioma cell line Met5A; test: MTT cytotoxicity assay, 72 h, Met5A; assay type: cell-based; settings: exposure time 72 h
Description: Cell lines and culture conditions
(§5) Mouse malignant mesothelioma cancer cell line AB12, human nonmalignant mesothelioma cancer cell line Met5A (mesothelial cells), mouse macrophage cell line J774 and human monocytic cell line THP-1 were obtained from American Type Culture Collection (ATCC) (Rockville, MD, USA). Human malignant mesothelioma cell lines VMC23 (epithelial), Meso82 (sarcomatous), Meso92 (biphasic), were kindly provided by Prof. Walter Berger (Medical University of Vienna). All cells except for J774 were cultured in RPMI and J774 cells were cultured in DMEM. Both types of media were supplemented with 10% FBS and 1% penicillin-streptomycin (10,000 U/mL). Cells were grown in tissue culture flasks (75 cm2 and 25 cm2, SPL Life Sciences Co., Ltd., Korea). All cell lines were grown at 37 °C in a humidified atmosphere of 95% air and 5% CO 2 and passaged when they reached 80–90% confluency. All Au stock solutions were prepared in 1% DMSO in the respected medium, ensuring that cell viability was not inhibited. The Au concentration in the stock solutions was confirmed through inductively coupled plasma optical emission spectrometry. The stock solution of pemetrexed (10 mM) was prepared in Milli -Q water.
Inhibition of c ell viability assay
as §2, §3, §4

[5] = determined from retention time using RP-HPLC
[6] = test system: patient-derived VMC23 cell line (epithelioid MPM); test: MTT cytotoxicity assay, 72 h, VMC23; assay type: cell-based, human; settings: exposure time 72 h
[7] = test system: murine malignant mesothelioma cell line AB12; test: MTT cytotoxicity assay, 72 h, AB12; assay type: cell-based, mouse; settings: exposure time 72 h
Description: as §1, §2, §3, §4

[8] = test system: patient-derived Meso92 cell line (biphasic MPM); test: MTT cytotoxicity assay, 72 h, Meso92; assay type: cell-based, human; settings: exposure time 72 h
Description: Cell lines and culture conditions
as §5
Inhibition of c ell viability assay
as §2, §3, §4

[9] = test system: AB12 cells phagocytosed by J774 macrophages; test: Phagocytosis assay, flow cytometry; assay type: cell-based, mouse; settings: AB12 treated 100 min at 5 × IC50 (72 h), 16 h with J774 macrophages
Description: page 21: incubated for an additional 50 min. Subsequently, the medium was aspirated, and the purple formazan crystals formed in viable cells were dissolved in DMSO (100 μL/well). Optical densities were measured at 570 nm using a BioTek Synergy H1 microplate and MultiskanTM SkyHigh plate readers. The quantity of viable cells was expressed in terms of treated/control (T/C) values in comparison to untreated control cells, and 50% inhibitory concentrations (IC 50) were calculated from concentration-effect curves by interpolation. An evaluation was based on means from at least three independent experiments, each comprising three […] concentration level. For macrophage analyses, the acute monocytic leukemia -derived THP-1 cell line (ATCC) was used as a model. 1 × 104 THP-1 cells were seeded per well in 96-well plates in RPMI-1640 with 10% FCS and treated for 24 h with 75 nM phorbol 12-myristate 13-acetate (PMA, Sigma- Aldrich) to induce M0 macrophage differentiation. After the differentiation period, PMA was replaced by fresh culture medium to recover for 2h. Afterwards increasing concentrations of 1G, 5A, 5B and 5G were added for a 72-h continuous drug exposure assay. In parallel, the […] were allowed to attach for 24 h. Gold compounds were added to the cells as described for the THP-1 model above. After the incubation period of 72 h, cell viability was determined by an MTT-based assay (EU4U, Biomedica) following the instructions of the manufacturer. DMSO had not impact on the cell viability at the concentrations used. Flow cytometry experiments Phagocytosis assay […] with RPMI, centrifuged (300 × g, 5 min) and labelled with CellTracker Red CMTPX Dye (0.72 μM for 5 × 10^5 cells) at 37°C for 30 minutes in 1 ml of serum -free RPMI. Following S21 page 22: centrifugation of the cells (300 × g, 5 min), 5 ml of fresh RPMI was introduced, and the cells were seeded at a density of 5 x 10^5 cells per well into Cellstar 6-well plates (Greiner Bio-One) (1 ml per well). J774 macrophages (70-80% confluence in a T75 flask) were detached by scraping, centrifuged (300 × g, 5 min). The medium was substituted with 1 ml of DMEM containing CellTracker Green CMFDA (1 μM) and the J774 macrophages were stained at 37°C for 30 minutes. Following centrifugation of the J774 macrophages (300 × g, 5 min), 5 ml of fresh DMEM was introduced, and the macrophages were seeded into a 100 cm2 petri dish (SPL Life Sciences, Korea). After 24 h, the media in AB12 cells was replaced with 1 ml of fresh […] for 100 minutes. After removing the drug-containing media, the cells were trypsinized (0.5 ml), neutralized with 1 ml of RPMI, centrifuged (300 × g, 5 min) and counted. From each sample, […] cells into 6-well plates. AB12 cells and J774 macrophages were co-incubated for 16 h at 37°C and 5% CO2, detached by scraping, centrifuged (300 × g, 5 min), and the pellets were resuspended in PBS for immediate analysis using a CytoFLEX Flow Cytometer (Beckman Coulter, USA). The percentage of phagocytosis was determined by calculating the number of double-positive macrophages (Q2) over the total number of macrophages (Q2 + Q3). […] Annexin V/PI assay AB12 cells were seeded into Cellstar 6-well plates (Greiner Bio-One) at a density of 5 × 10^5 cells/well (1 ml per well). […] The medium was removed and cells were washed with PBS (2 × 1 mL). Afterwards the cells were […] S22

AB12 cells = test: Annexin V/PI assay (necrosis), flow cytometry; assay type: cell-based, mouse; settings: AB12, 5 × IC50 (72 h), short exposure
Description: centrifugation of the cells (300 × g, 5 min), 5 ml of fresh RPMI was introduced, and the cells were seeded at a density of 5 x 10^5 cells per well into Cellstar 6-well plates (Greiner Bio-One) (1 ml per well). J774 macrophages (70-80% confluence in a T75 flask) were detached by scraping, centrifuged (300 × g, 5 min). The medium was substituted with 1 ml of DMEM containing CellTracker Green CMFDA (1 μM) and the J774 macrophages were stained at 37°C for 30 minutes. Following centrifugation of the J774 macrophages (300 × g, 5 min), 5 ml of fresh DMEM was introduced, and the macrophages were seeded into a 100 cm2 petri dish (SPL Life Sciences, Korea). After 24 h, the media in AB12 cells was replaced with 1 ml of fresh RPMI containing compounds of interest at equipotent concentration of 5 × IC50 and incubated for 100 minutes. After removing the drug-containing media, the cells were trypsinized (0.5 ml), neutralized with 1 ml of RPMI, centrifuged (300 × g, 5 min) and counted. From each sample, 2 × 10^5 AB12 cells were seeded into Cellstar 6-well plates (Greiner Bio-One) (1 ml per well).
2 × 10^5 J774 macrophages were detached from a petri dish by scraping and added to AB12 cells into 6-well plates. AB12 cells and J774 macrophages were co-incubated for 16 h at 37°C and 5% CO2, detached by scraping, centrifuged (300 × g, 5 min), and the pellets were resuspended in PBS for immediate analysis using a CytoFLEX Flow Cytometer (Beckman Coulter, USA). The percentage of phagocytosis was determined by calculating the number of double-positive macrophages (Q2) over the total number of macrophages (Q2 + Q3). Dot plots […]
analysis of the flow cytometry data. […]
concentrations for 100 min at 37 °C. […] Cell death was evaluated by flow cytometry using a CytoFLEX Flow Cytometer equipped with a 488 nm laser and a 638 nm laser (Beckman Coulter, Brea, CA, USA). The cells were excited by the 488 nm laser, and fluorescence emissions were detected at 525/40 nm for FITC (Annexin V) and at 610/20 nm for ECD (PI).
The percentage of necrosis was determined by calculating the sum of cells in Q1 and Q2. […]

[10] = test system: M0-differentiated THP-1 cells; test: MTT-based viability assay on M0-differentiated THP-1 cells, 72 h; assay type: cell-based, human; settings: 72-h exposure, compared with AB12 cells
Description: incubated for an additional 50 min. Subsequently, the medium was aspirated, and the purple formazan crystals formed in viable cells were dissolved in DMSO (100 μL/well). Optical densities were measured at 570 nm using a BioTek Synergy H1 microplate and MultiskanTM SkyHigh plate readers. The quantity of viable cells was expressed in terms of treated/control (T/C) values in comparison to untreated control cells, and 50% inhibitory concentrations (IC 50) were calculated from concentration-effect curves by interpolation. An evaluation was based on means from at least three independent experiments, each comprising three replicat es per […]
For macrophage analyses, the acute monocytic leukemia -derived THP-1 cell line (ATCC) was used as a model. 1 × 104 THP-1 cells were seeded per well in 96-well plates in RPMI-1640 with 10% FCS and treated for 24 h with 75 nM phorbol 12-myristate 13-acetate (PMA, Sigma-Aldrich) to induce M0 macrophage differentiation. After the differentiation period, PMA was replaced by fresh culture medium to recover for 2h. Afterwards increasing concentrations of 1G, 5A, 5B and 5G were added for a 72-h continuous drug exposure assay. In parallel, the murine mesothelioma cell line AB12 was seeded into 96 -well plates at 2.5 × 10^3 cells/well and were allowed to attach for 24 h. Gold compounds were added to the cells as described for the THP-1 model above. After the incubation period of 72 h, cell viability was determined by an MTT-based assay (EU4U, Biomedica) following the instructions of the manufacturer. DMSO had not impact on the cell viability at the concentrations used. […]

[11] = test system: AB12 cells in BALB/c mice; test: In vivo vaccination model; design: species or system mouse; settings: within the first 30 days after vaccination, n = 8
Description: Initially, AB12 cells underwent pretreatment with varying concentrations of Au(III) complexes, and the induced cell death and release of desired ICD biomarkers were monitored over time. Upon reaching a cell death rate of 65%–75%, BALB/c mice (n = 8) were subcutaneously injected in the left flank with a vaccine containing 3 × 10^5 of live/dying/dead cells, while the vehicle group received injections of PBS. Seven days postvaccine administration, the immunized mice were rechallenged by inoculating the same number of live AB12 cells (without any prior treatment) into the right flanks (Figure 5A). The progression of tumor growth on the right flanks was monitored using a caliper.
AB12 cells were seeded into Cellstar 24-well plates (Greiner Bio-One) at a density of 1.8 × 104
cells/ml (1 ml per well) and allowed to grow exponentially for 16 hours. Subsequently, the
medium was replaced with 1 ml of fresh medium containing compounds of interest at
predetermined concentrations (with a minimum of 4 wells per treatment condition). These
concentrations were selected to induce 65-75% cell death.
Subsequently, the culture
medium was aspirated, and the cells were washed twice with 1 mL of PBS. The cell
concentration was adjusted to 3 × 10^5 cells (including dead/dying/live cells) per 100 μL of PBS,
and the ratio of dead/live cells was assessed using the Invitrogen Countess 3 cell counter. In
the subsequent experiment, BALB/c mice (8 mice per group) were subcutaneously injected
with 0.1 mL of AB12 cells (3 × 10^5 cells/mL, including dead/dying/live cells) or the
corresponding vehicle (PBS) on the left flank. Tumor growth was monitored daily.
After 7 days, the mice were subcutaneously injected with
0.1 mL of AB12 cells (3 × 10^5 cells/mL, live cells) on the right flank. Regular measurements
of body weights and tumor sizes were taken. Mice that developed palpable tumors were
euthanized for further analysis.

| SMILES | IC50 [1] [nM] | IC50 [2] [nM] | IC50 [3] [nM] | IC50 [4] [nM] | LogP [5] | IC50 [6] [nM] | IC50 [7] [nM] | IC50 [8] [nM] | phagocytosis / ICD response (in words) [9] | necrotic cell death (in words) (AB12 cells) | sensitivity of THP-1-derived macrophages [10] | phagocytosis rate [9] | mice that developed tumors after vaccination [11] |
| --- | --- | --- | --- | --- | --- | --- | --- | --- | --- | --- | --- | --- | --- |
| COC1c2cccc[c]2[Au-]2([S]C(=[N+]3CCCCC3)[S]2)[n+]2ccccc21.F[P-](F)(F)(F)(F)F (racemic) [4H] | 2500 ± 100 | 2400 ± 200 | 330 ± 80 | 680 ± 140 | 2.33 | 2800 ± 300 | 220 ± 30 | 1700 ± 300 | – | – | – | – | – |
| F[P-](F)(F)(F)(F)F.c1cc[c]2c(c1)Cc1cccc[n+]1[Au-]21[S]C(=[N+]2CCCCC2)[S]1 (centres unmarked) [2H] | 1900 ± 300 | 2000 ± 500 | 300 ± 70 | 2200 ± 500 | 2.56 | 8400 ± 1300 | 310 ± 80 | 5200 ± 1200 | – | – | – | – | – |
| F[P-](F)(F)(F)(F)F.c1ccc(C[N+](Cc2ccccc2)=C2[S][Au-]3([S]2)[c]2ccccc2Cc2cccc[n+]23)cc1 (centres unmarked) [2D] | 2200 ± 400 | 2300 ± 700 | 3000 ± 300 | 2500 ± 400 | – | 2400 ± 500 | 3900 ± 500 | 5400 ± 1300 | high levels of phagocytosis | did not result in significant necrotic cell death | – | – | – |
| CC[N+](CC)=C1[S][Au-]2([S]1)[c]1ccccc1Nc1cccc[n+]12.F[P-](F)(F)(F)(F)F (centres unmarked) [5B] | 240 ± 20 | 190 ± 50 | 63 ± 19 | 180 ± 50 | – | 300 ± 90 | 53 ± 2 | 210 ± 60 | – | – | highly sensitive | – | – |
| F[P-](F)(F)(F)(F)F.c1cc[c]2c(c1)-c1cccc[n+]1[Au-]21[S]C(=[N+]2CCCCCC2)[S]1 (centres unmarked) [1G] | 500 ± 120 | 220 ± 30 | 500 ± 40 | 430 ± 90 | – | 720 ± 140 | 1100 ± 100 | 1400 ± 200 | – | – | highly sensitive | – | – |
| CCCC[N+](CCCC)=C1[S][Au-]2([S]1)[c]1ccccc1Nc1cccc[n+]12.F[P-](F)(F)(F)(F)F (centres unmarked) [5C] | 360 ± 70 | 86 ± 22 | 180 ± 30 | 65 ± 15 | – | 640 ± 140 | 130 ± 30 | 410 ± 60 | – | – | – | 35% ± 9% | ≈ 50% |
| F[P-](F)(F)(F)(F)F.c1cc[c]2c(c1)-c1cccc[n+]1[Au-]21[S]C(=[N+]2CCCCC2)[S]1 (centres unmarked) [1H] | 370 ± 100 | 620 ± 120 | 700 ± 90 | 130 ± 30 | 2.45 | 1400 ± 100 | 91 ± 18 | 1100 ± 100 | high levels of phagocytosis | did not result in significant necrotic cell death | – | – | – |
| COC1c2cccc[c]2[Au-]2([S]C(=[N+](Cc3ccccc3)Cc3ccccc3)[S]2)[n+]2ccccc21.F[P-](F)(F)(F)(F)F (racemic) [4D] | 2300 ± 600 | 1700 ± 200 | 2900 ± 700 | 3200 ± 300 | – | 4200 ± 700 | 2300 ± 100 | 4100 ± 900 | – | – | – | 35% ± 9% | – |
